These results are taken from paper doi:10.1101/2024.02.16.580637v1 (biorxiv, 2024).

Common to all, as to assay: grating-coupled interferometry
Holding throughout (format): binding
Settings in all cases: 20 mM Tris/HCl pH 7.5, 150 mM NaCl; mass transport limitation model

One test has as its target T1, BtuG1 (Bacteroides thetaiotaomicron, UniProt Q8A7N4).
T1 sequence (Q8A7N4 28-442): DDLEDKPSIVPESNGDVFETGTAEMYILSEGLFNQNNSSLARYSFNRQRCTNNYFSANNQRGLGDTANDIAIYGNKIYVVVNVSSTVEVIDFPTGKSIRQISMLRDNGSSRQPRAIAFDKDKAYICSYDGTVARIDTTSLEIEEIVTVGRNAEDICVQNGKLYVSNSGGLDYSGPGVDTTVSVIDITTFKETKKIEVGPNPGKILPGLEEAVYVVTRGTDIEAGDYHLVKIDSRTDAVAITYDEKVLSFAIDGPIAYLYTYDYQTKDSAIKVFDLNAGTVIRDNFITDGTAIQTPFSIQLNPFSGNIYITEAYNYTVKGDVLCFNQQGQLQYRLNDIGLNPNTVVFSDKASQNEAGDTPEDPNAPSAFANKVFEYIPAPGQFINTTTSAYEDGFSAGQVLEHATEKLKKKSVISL

In another test the target is T2, BtuG2 (Bacteroides thetaiotaomicron, UniProt Q8A6D0).
T2 sequence (Q8A6D0 47-366): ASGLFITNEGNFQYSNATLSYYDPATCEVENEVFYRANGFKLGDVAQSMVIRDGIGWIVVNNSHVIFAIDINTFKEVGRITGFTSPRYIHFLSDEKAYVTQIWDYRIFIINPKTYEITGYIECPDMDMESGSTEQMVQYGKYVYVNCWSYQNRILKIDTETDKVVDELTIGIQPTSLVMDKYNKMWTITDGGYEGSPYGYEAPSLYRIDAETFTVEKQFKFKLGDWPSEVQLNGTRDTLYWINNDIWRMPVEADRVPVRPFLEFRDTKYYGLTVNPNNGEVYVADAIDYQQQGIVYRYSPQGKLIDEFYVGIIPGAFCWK

Test [1] has as its target T3, BtuG3 (Bacteroides thetaiotaomicron, UniProt Q8A5Z1).
T3 sequence (Q8A5Z1 34-355): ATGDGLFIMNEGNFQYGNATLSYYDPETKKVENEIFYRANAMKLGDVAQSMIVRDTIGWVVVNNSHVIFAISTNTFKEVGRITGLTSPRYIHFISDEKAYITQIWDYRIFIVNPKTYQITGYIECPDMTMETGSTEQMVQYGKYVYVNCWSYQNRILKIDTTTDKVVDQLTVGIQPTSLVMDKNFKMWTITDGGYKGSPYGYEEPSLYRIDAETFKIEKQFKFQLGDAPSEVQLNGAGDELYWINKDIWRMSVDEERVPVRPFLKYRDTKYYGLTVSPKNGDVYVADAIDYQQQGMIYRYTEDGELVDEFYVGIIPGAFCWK

Test [2] concerns the target T4, BtuG3 (Bacteroides thetaiotaomicron, UniProt Q8A5Z1, A261W).
T4 sequence (Q8A5Z1 34-355 A261W): T3 sequence (Q8A5Z1 34-355)

On to `C/C1=C2/[N-][C@H]([C@H](CC(N)=O)[C@@]2(C)CCC(=O)NC[C@@H](C)OP(=O)([O-])O[C@H]2[C@@H](O)[C@@H](n3cnc4cc(C)c(C)cc43)O[C@@H]2CO)[C@]2(C)N=C(/C(C)=C3N=C(/C=C4N=C1[C@@H](CCC(N)=O)C\4(C)C)[C@@H](CCC(N)=O)[C@]\3(C)CC(N)=O)[C@@H](CCC(N)=O)[C@]2(C)CC(N)=O.[Co+3].[OH-]` [OHCbl, hydroxycobalamin], for which the Kd on BtuG1 was 3.0 · 10^-12 M; on BtuG2 it was 2.2 · 10^-12 M; on BtuG3 [1], 2.8 · 10^-11 ± 3.9 · 10^-11 M; at BtuG3 [2], 1.4 · 10^-10 M.
